Reference: US20120021434A1, “METHOD FOR TREATING B CELL REGULATED AUTOIMMUNE DISORDERS” (Synta Pharmaceuticals Corp., priority 2005, published 2012)

Assays:
Format in all cases: cell-based
IKKβ = experiment: Phosphorylation of IKKβ in IFNγ/LPS-stimulated THP-1 cells (immunoblot); conditions: THP-1 whole cell extracts, IFNγ/LPS 5 min to 1 hr, 500 nM
Procedure: The whole cell extracts were prepared using Cell Lysis Buffer (Cell Signaling, Beverly, Mass., USA) according to the manufacture's instruction.
The phosphorylation of IKK is an early step in NF-κB activation. To determine whether Compound 50 inhibits the activation of the IKK complex, the level of phosphorylated IKKβ was investigated in drug-treated, LPS-stimulated cells. Whole cell extracts were prepared from THP-1 cells that had been stimulated with IFNγ/LPS for 5 min, 15 min 30 min and 1 hr in the either the absence or presence of 500 nM Compound 50. Phosphorylated IKKβ was determined by immunoblot analysis using an anti-phospho IKKβ antibody. […] Compound 50 treatment had no effect on the induction of phosphorylated IKKβ.

ICSBP = ICSBP expression (Western blot)
Procedure: The 10% SDS Polyacrylamide gels (Inveitrogen) were transferred to Pure Nitrocellulose membrane (BioRed, Hercules, Calif.). The membranes were blocked with 5% milk in TBST buffer and incubated with anti-c-Rel, anti-p65, anti-p50, anti-ICSBP or anti-PU-1 antibody (all the antibodies were purchased from Santa Cruz) at a dilution of 1:500 for 1 h at room temperature or overnight at 4C. The membranes were washed and incubated with Horseradish Peroxidase-conjugated anti-rabbit IgG or anti-mouse IgG (Amersham, England) at a dilution of 1:2000 at room temperature for 1 h.
Of the transcription factors that have been analyzed, two factors, ICSBP and c-Rel, seem to be affected by Compound 4/Compound 50 treatment. ICSBP binds indirectly to the Ets-2 site. The primary NF-κB trans-activator for IL-12 is the c-Rel/p50 heterodimer. Other dimers (p65/p50 and p50/p50) either lack activity or have inhibitory functions. Thus, c-Rel plays a role in IL-12 transcription as a result of both activation through NF-κB and its interaction with ICSBP. […] The membranes were blocked with 5% milk in TBST buffer and then incubated with anti-c-Rel, anti-p65, anti-p50, anti-ICSBP or anti-PU-1 antibody (all the antibodies were purchased from Santa Cruz) at a dilution of 1:500 for 1 h at room temperature or overnight at 4° C. The membranes were washed and incubated with Horseradish Peroxidase-conjugated anti-rabbit IgG or anti-mouse IgG (Amersham, England) at a dilution of 1:2000 at room temperature for 1 h.
ICSBP, whose expression was reduced by Compound 50, was over-expressed using co-transfection with the IL-12 promoter-Luc report system. The over-expression construct of ICSBP was generated by PCR from cDNA of human PBMC using primers as follow: ICSBP-exp-F: 5′-[…]-3′ (SEQ ID NO:1) and ICSBP-exp-R: 5′-[…]-3′ (SEQ ID NO:2), the resulting PCR products was ligated to pCI vector (Promega).

p50 = experiment: Western blot of THP-1 nuclear extracts: p50; conditions: IFN-γ plus LPS or IFN-γ plus SAC, remained above non-stimulated levels
Procedure: The THP-1 cell, Jurkat cell and RAW264.7 cell line were obtained from American Type Culture Collection (Manassas, Va.). The THP-1 Jurkat cells were cultured in RPMI 1640 (ATCC, Manassas, Va.), supplemented with 10% FCS (ATCC, Manassas, Va.), and 1% penicillin/Streptomycin (Gibco-BRL, New York, N.Y.). The RAW264.7 cells were cultured in DMEM (ATCC, Manassas, Va.) supplemented with 10% FCS (ATCC, Manassas, Va.), and 1% penicillin/Streptomycin (Gibco-BRL, New York, N.Y.). The cells were stimulated with human or murine recombinant IFNγ (100 ng/ml) for 10 h followed by LPS (1 μg/ml) or SAC (0.025%) CpG ([…]) in the presence or absence of Compound 50 at different concentrations for an additional incubation.
THP-1 cells were suspended in 20 volumes of buffer A containing 10 mM KCl, 10 mM HEPES (pH 7.9), 1 mM MgCl2, 1 mM dithiothreitol (DTT), 0.1% Nonidet p40 (NP-40), and 0.5 mM phenylmethylsulfonyl fluoride (PMSF) and homogenized and centrifuged at 10,000 rpm at 4C afor 5 min. […]
Of the transcription factors that have been analyzed, two factors, ICSBP and c-Rel, seem to be affected by Compound 4/Compound 50 treatment. […]

p65 = experiment: LPS/IFNγ-induced phosphorylation of p65 in THP1 cells (immunoblot); conditions: THP1, 100 nM, residues Ser-276, Ser-468 and Ser-927
Procedure: In this study, we examined the effect of Compound 50 on LPS-induced phosphorylation of the NF-κB members p65 and p105/p50. THP1 monocytic cells were stimulated with IFNγ plus LPS in the presence or absence of 100 nM Compound 50 (30 min, 1 h and 3 h) and whole-cell extracts were immunoblotted using anti-phospho p65 and p105/p50 antibodies to detect the phosphorylated forms of these proteins. […] LPS/IFNγ induced phosphorylation of p65 as early as 30 minutes on residues Ser-276, Ser-468 and […]. Compound 50 had no effect on LPS/IFNγ induced phosphorylation at these sites. […] LPS/IFNγ induced phosphorylation of p105 as early as 30 minutes on residues Ser-927 and Ser-933. Compound 50 had no effect on LPS/IFNγ induced phosphorylation at these sites.

Cc1cccc(/C=N/Nc2cc(N3CCOCC3)nc(OCCc3ccccn3)n2)c1 [Compound 50, N-(3-Methyl-benzylidene)-N′-[6-morpholin-4-yl-2-(2-pyridin-2-yl-ethoxy)-pyrimidin-4-yl]-hydrazine]
induction of phosphorylated IKKβ (IKKβ): no effect | ICSBP expression (ICSBP): reduced | transcription factor ICSBP affected by treatment (ICSBP; of the transcription factors analyzed): affected | nuclear p50 levels (p50): decreased slightly | LPS/IFNγ induced phosphorylation of p65 (p65): no effect
